The term IC50 denotes the concentration that inhibits the measured activity by half. The Ki is a measure of affinity in units of concentration, obtained from inhibition or displacement.

Like-named read-outs stand apart in the source and are kept apart here.

The results in this text go back to patent publication US10172859B2, “Arylquinazolines” (Merck Patent GmbH, priority 2013, dated 2019).

Series [1] deals with phospho-serine 2056 DNA-PK in HCT116 cells (Homo sapiens (Human), UniProt P78527). The experiment in a line: DNA-PK phosphorylation at serine 2056 (cellular), ELISA in bleomycin-treated HCT116 cells. In kind it is cell-based. Particulars: read-out: IC50 pDNA-PK. The procedure:
HCT116 cells were cultivated at 37° C. and 10% CO2 in MEM alpha medium with 10% of foetal calf serum and 2 mM glutamine. The cells were detached from the base of the culture vessels with the aid of trypsin/EDTA, centrifuged off in centrifuge tubes, taken up in fresh medium, and the cell density was determined. 100,000 cells were sown in 1 ml of culture medium per cavity of a 24-well cell culture plate and cultivated overnight. Next day, 10 μM bleomycin (DNA intercalator and inductor of DNA double-strand breaks) and test substances in fresh culture medium were added to the cells, and these were cultivated for a further six hours. […] The 96-well ELISA plates were subsequently treated with a detection antibody (Abcam ab79444: total DNA-PK) and a streptavidin-HRP conjugate. The development of the enzymatic reaction was carried out with the aid of a chemiluminescent reagent, the chemiluminescence was measured with the aid of a Mithras LB940. The signals with the phospho-DNA-PK-specific antibody were standardised to the signal with the antibody against the total protein DNA-PKc. […] The DMSO control was used as blank.
On the technique in general: ELISA stands for enzyme-linked immunosorbent assay.

Series [2] addresses T1, Kv11.1 (hERG) channel (Homo sapiens (Human), UniProt Q12809). The series can be described thus: Kv11.1 (hERG) ion channel activity (patch clamp assay).
Description: (§1) C) Kv11.1 (hERG) ION CHANNEL ACTIVITY (Patch Clamp Assay)
(§2) The patch-clamp measurement was carried out at room temperature in whole-cell configuration on human embryonic kidney cells (HEK293) which have been transfected in a stable manner with the hERG gene.
(§3) The whole-cell configurations were carried out using an automated patch clamp device (Patchliner™, Nanion Technologies, Munich). This is a glass chip-based system with which automated whole-cell measurements on up to 8 cells simultaneously are possible. The glass chip has a hole of defined size to which the cell is transferred into the Gigaseal by application of a reduced pressure and brought into the whole-cell configuration. Buffer, cell suspension and test substances were added to microchannels of the chip using a Teflon-coated pipette. The cells were clamped to a holding potential of −80 mV. For measurement of substancepromoted inhibition of the Kv11.1 channel, the following voltage protocol was applied at 10-second intervals: 51 ms/−80 mV, 500 ms/+40 mV, 500 ms/−40 mV, 200 ms/−80 mV. The leakage current is subtracted by means of the P4 method. The cells were resuspended in extracellular buffer (EC) and applied to the chip. After the cell had been collected, the seal was improved by addition of a seal enhancer buffer. As soon as the whole-cell configuration had been reached, the seal enhancer buffer was washed out and replaced by extracellular buffer. The measurement started in EC for 1.5 min. DMSO (vehicle control, 0.1% of DMSO) was then applied, and the control current was recorded for 3 min. The test substance was subsequently added twice in the same concentration, and the potassium current was measured for 3.5 min in each case.
(§4) The reference substance used was the Kv11.1 (hERG) ion channel blocker quinidine. The effects of test substances and quinidine were standardised to the associated vehicle control. The effect on the Kv11.1 (hERG) channel activity was assessed from the potassium current at −40 mV. For the calculation, the current was evaluated for the respective final trace.
(§5) During the measurement, an aliquot of the test substance was taken for concentration determination. The sample was measured immediately by HPLC, and the final concentration was determined from a calibration curve.
A further series concerns the target DNA-PK/protein complex (Homo sapiens (Human), UniProt P78527). The series can be described thus: DNA-PK assay (biochemical), flashplate kinase assay. Here is the method: A) DNA-PK Assay (Biochemical)
The kinase assay was carried out in streptavidin-coated […] microtitre flashplates. […] The reaction was stopped using 50 μl/well of 200 mM EDTA. After incubation for a further 30 min at room temperature, the liquid was removed. Each well was washed three times with 100 μl of 0.9% saline solution. A nonspecific reaction (blank value) was determined using 10 μM of an innate kinase inhibitor. The radioactivity measurement was carried out using a TopCount. IC50 values were calculated in RS1.

Series [3] addresses T1, Kv11.1 (hERG) channel.
Description: as §1, §2, §3, §4, §5
Where [4] appears, read: cellular, HCT116, 10 μM bleomycin, six hours.

T1 sequence (Q12809 whole entry): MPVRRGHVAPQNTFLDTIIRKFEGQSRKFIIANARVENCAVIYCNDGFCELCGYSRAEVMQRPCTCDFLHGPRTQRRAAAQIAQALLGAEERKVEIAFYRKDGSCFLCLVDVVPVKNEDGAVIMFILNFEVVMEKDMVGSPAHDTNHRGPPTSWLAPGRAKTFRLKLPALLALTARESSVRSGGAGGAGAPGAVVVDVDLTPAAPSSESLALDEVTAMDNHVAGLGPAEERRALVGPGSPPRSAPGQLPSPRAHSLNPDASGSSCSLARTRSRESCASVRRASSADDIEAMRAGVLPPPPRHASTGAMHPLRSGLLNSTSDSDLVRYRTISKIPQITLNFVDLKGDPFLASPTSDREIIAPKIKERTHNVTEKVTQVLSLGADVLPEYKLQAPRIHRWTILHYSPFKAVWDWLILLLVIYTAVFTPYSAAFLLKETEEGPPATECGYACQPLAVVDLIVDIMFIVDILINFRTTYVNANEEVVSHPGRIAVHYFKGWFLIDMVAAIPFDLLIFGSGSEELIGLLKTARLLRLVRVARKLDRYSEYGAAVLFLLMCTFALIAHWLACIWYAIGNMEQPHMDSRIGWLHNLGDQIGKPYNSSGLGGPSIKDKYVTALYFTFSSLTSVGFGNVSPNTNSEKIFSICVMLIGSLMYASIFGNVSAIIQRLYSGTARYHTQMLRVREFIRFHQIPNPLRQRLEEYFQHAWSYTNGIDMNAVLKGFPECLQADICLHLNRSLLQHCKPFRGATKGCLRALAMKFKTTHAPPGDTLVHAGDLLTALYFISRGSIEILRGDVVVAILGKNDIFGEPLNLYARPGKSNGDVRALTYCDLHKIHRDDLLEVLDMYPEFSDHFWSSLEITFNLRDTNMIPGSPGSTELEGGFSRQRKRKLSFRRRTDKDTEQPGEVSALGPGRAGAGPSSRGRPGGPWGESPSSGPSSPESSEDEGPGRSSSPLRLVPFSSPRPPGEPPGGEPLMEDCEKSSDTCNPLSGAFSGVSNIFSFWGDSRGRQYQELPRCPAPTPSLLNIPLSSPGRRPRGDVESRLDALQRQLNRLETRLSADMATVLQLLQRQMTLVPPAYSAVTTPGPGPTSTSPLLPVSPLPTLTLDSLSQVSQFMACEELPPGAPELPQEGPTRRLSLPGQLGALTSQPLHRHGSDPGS

In the case of `COc1nnc(Cl)cc1C(O)c1ccc(F)c(-c2ncnc3cc(N4CCOCC4)ccc23)c1` (centres unmarked) [Example 9], the concentration for half-maximal inhibition (IC50) in series [1] (setting [4]) is below 0.5 µM; against DNA-PK/protein complex (enzymatic, 5 μM ATP) it was 0.003 to 0.007 µM. Besides, the Ki at Kv11.1 (hERG) channel [2] (read-out: Ki [Kv1.11 hERG], HEK293 transfected with hERG gene, whole-cell) was below 10 µM.

Take `CCNCc1csc(C(O)c2cc(-c3ncnc4cc(N5CCOCC5)ccc34)c(F)cc2Cl)n1` (centres unmarked) [Example 190]: at Kv11.1 (hERG) channel [3], the Ki lay in the range of 15 to 25 µM.

Regarding `Cn1nccc1C(O)c1ccc(F)c(-c2nc(Cl)nc3cc(N4CCOCC4)ccc23)c1` (centres unmarked) [Example 214, [3-(2-Chloro-7-morpholin-4-yl-quinazolin-4-yl)-4-fluoro-phenyl]-(2-methyl-2H-pyrazol-3-yl)-methanol], the IC50 lay within 10 to 30 µM in series [1] (setting [4]) and 0.003 to 0.007 µM at DNA-PK/protein complex (enzymatic, 5 μM ATP). Further, the Ki on Kv11.1 (hERG) channel [2] was in the range of 15 to 25 µM.

As to `COc1nccnc1C(C(N)=O)c1cc(-c2ncnc3cc(N4CCOCC4)ccc23)ccc1F` (centres unmarked) [Example 316], the IC50 was 5 to 10 µM in series [1] (DNA-PK phosphorylation at serine 2056, HCT116 cells) and above 0.03 µM against DNA-PK/protein complex (biochemical DNA-PK assay). The compound further came in with a Ki at Kv11.1 (hERG) channel [2] of 15 to 25 µM.

Regarding `OC(c1ccc(F)c(-c2ncnc3cc(N4CCOCC4)ccc23)c1)c1nccnc1I` (centres unmarked) [Example 462, [4-Fluoro-3-(7-morpholin-4-yl-quinazolin-4-yl)-phenyl]-(3-iodo-pyrazin-2-yl)-methanol], the inhibition constant Ki at Kv11.1 (hERG) channel [2] (read-out: Ki [Kv1.11 hERG], hERG patch clamp assay) was in the range of 15 to 25 µM.
